Experimental data taken from ChEMBL document CHEMBL3407452, “Linear and branched alkyl-esters and amides of gallic acid and other (mono-, di- and tri-) hydroxy benzoyl derivatives as promising anti-HCV inhibitors” (Eur J Med Chem, 2015).
The source made the active and inactive calls. No cut-off for these calls is given here.

Tests used:
[1] = system: Human immunodeficiency virus 1; experiment: Antiviral activity against HIV1 3B infected in human CEM cells assessed as reduction in virus-induced cytopathicity after 4 to 5 days by microscopy based syncytium cell formation assay; format: functional, organism-based, CCRF-CEM; settings: Human immunodeficiency virus 1, 3B, CCRF-CEM; read-out: EC50
[2] = system: Human immunodeficiency virus 2; experiment: Antiviral activity against HIV2 ROD infected in human CEM cells assessed as reduction in virus-induced cytopathicity after 4 to 5 days by microscopy based syncytium cell formation assay; format: functional, organism-based, ISOLATE ROD, CCRF-CEM; settings: Human immunodeficiency virus 2, ISOLATE ROD, CCRF-CEM; read-out: EC50
[3] = Cytotoxicity against human CEM cells assessed as inhibition of cell proliferation; format: cell-based; settings: CEM cells (CCRF-CEM)
Hepatitis C virus = experiment: Antiviral activity against HCV genotype 1b I389luc-ubi-neo/NS3-3'/5.1 replicons infected in human Huh5-2 HCV subgenomic replicon-containing cells assessed as reduction in virus replication after 3 days by luciferase reporter gene assay; format: functional, Hepacivirus hominis; settings: Hepatitis C virus, genotype 1b, Huh-5-2, 72 h; for EC50: read-out: EC50
[4] = Cytotoxicity against human Huh5-2 cells after 72 hrs by MTS assay; format: cell-based, Huh-5-2
[5] = Selectivity index, ratio of CC50 for human CEM cells to EC50 for HIV1 3B; format: toxicity, cell-based, CCRF-CEM; settings: read-out: Ratio CC50/EC50
Vaccinia virus = experiment: Antiviral activity against vaccinia virus; format: functional, organism-based; settings: Orthopoxvirus vaccinia
[6] = system: Vesicular stomatitis virus; experiment: Antiviral activity against vesicular stomatitis virus; format: functional, organism-based
Coxsackievirus B4 = experiment: Antiviral activity against human coxsackievirus B4; format: functional, organism-based
[7] = system: Respiratory syncytial virus; experiment: Antiviral activity against RSV; format: functional, organism-based
Human respirovirus 3 = experiment: Antiviral activity against human parainfluenza virus 3; format: functional, organism-based
Reovirus sp. = experiment: Antiviral activity against reovirus; format: functional, organism-based
Sindbis virus = experiment: Antiviral activity against sindbis virus; format: functional, organism-based
Influenza A virus H3N2 = experiment: Antiviral activity against influenza A virus H3N2; format: functional, organism-based
Influenza A virus = experiment: Antiviral activity against influenza A virus (H1N1); format: functional, organism-based
Punta Toro virus = experiment: Antiviral activity against punta toro virus; format: functional, organism-based
Feline coronavirus = experiment: Antiviral activity against feline coronavirus; format: functional, organism-based
Felid alphaherpesvirus 1 = experiment: Antiviral activity against feline herpesvirus; format: functional, organism-based
Chikungunya virus = experiment: Antiviral activity against chikungunya virus; format: functional

SMILES	EC50 [1] [µM]	EC50 [2] [µM]	CC50 [3] [µM]	EC90 (Hepatitis C virus) [µM]	EC50 (Hepatitis C virus) [µM]	CC50 at 72 h [4] [µM]	selectivity ratio [5]	Activity (Vaccinia virus)	Activity [6]	Activity (Coxsackievirus B4)	Activity [7]	Activity (Human respirovirus 3)	Activity (Reovirus sp.)	Activity (Sindbis virus)	Activity (Influenza A virus H3N2)	Activity (Influenza A virus)	Activity (Punta Toro virus)	Activity (Feline coronavirus)	Activity (Felid alphaherpesvirus 1)	Activity (Chikungunya virus)
O=C(NCCN(CCNC(=O)c1ccc(O)c(O)c1O)CCNC(=O)c1ccc(O)c(O)c1O)c1ccc(O)c(O)c1O	2.5	> 10	28	> 5.5	> 5.5	> 3.7	10	inactive	inactive	inactive	inactive	inactive	inactive	inactive	inactive	inactive	inactive	inactive	inactive	inactive
O=C(NCCN(CCN(CCN(CCNC(=O)c1cc(O)c(O)c(O)c1)C(=O)c1cc(O)c(O)c(O)c1)C(=O)c1cc(O)c(O)c(O)c1)C(=O)c1cc(O)c(O)c(O)c1)c1cc(O)c(O)c(O)c1	4.9	> 10	21	> 50	34	> 50	4	inactive	inactive	inactive	inactive	inactive	inactive	inactive	inactive	inactive	inactive	inactive	inactive	inactive
O=C(NCCCCNC(=O)c1cc(O)c(O)c(O)c1)c1cc(O)c(O)c(O)c1	5.2	> 10	23	> 29	18	29		inactive	inactive	inactive	inactive	inactive	inactive	inactive	inactive	inactive	inactive	inactive	inactive	inactive
O=C(NCCCCCCCCCCNC(=O)c1cc(O)c(O)c(O)c1)c1cc(O)c(O)c(O)c1	> 50	> 50	86		20	47		inactive	inactive	inactive	inactive	inactive	inactive	inactive	inactive	inactive	inactive	inactive	inactive	inactive
O=C(NCCCCNC(=O)c1ccc(O)c(O)c1O)c1ccc(O)c(O)c1O	> 10	> 10	109	> 50	15	> 50		inactive	inactive	inactive	inactive	inactive	inactive	inactive	inactive	inactive	inactive	inactive	inactive	inactive
O=C(NCCCCN(CCCNC(=O)c1cc(O)c(O)c(O)c1)C(=O)c1cc(O)c(O)c(O)c1)c1cc(O)c(O)c(O)c1	18		107				6	inactive	inactive	inactive	inactive	inactive	inactive	inactive	inactive	inactive	inactive	inactive	inactive	inactive
O=C(NCCCCCCCCCCCCNC(=O)c1cc(O)c(O)c(O)c1)c1cc(O)c(O)c(O)c1	19	26	58	> 100	27	> 100		inactive	inactive	inactive	inactive	inactive	inactive	inactive	inactive	inactive	inactive	inactive	inactive	inactive
CCCCCCOC(=O)c1cc(O)c(O)c(O)c1 [HEXYL GALLATE]	5.4	6.6	14	> 50	9	> 50		inactive	inactive	inactive	inactive	inactive	inactive	inactive	inactive	inactive	inactive	inactive	inactive	inactive
CCCCOC(=O)c1cc(O)c(O)c(O)c1 [BUTYL GALLATE]	> 10	> 10	55	> 29	13	29		inactive	inactive	inactive	inactive	inactive	inactive	inactive	inactive	inactive	inactive	inactive	inactive	inactive
O=C(NCCCCN(CCCNC(=O)c1ccc(O)c(O)c1O)C(=O)c1ccc(O)c(O)c1O)c1ccc(O)c(O)c1O	2.6	> 10	27	> 50	34	> 50	10	inactive	inactive	inactive	inactive	inactive	inactive	inactive	inactive	inactive	inactive	inactive	inactive	inactive
CCCCCOC(=O)c1cc(O)c(O)c(O)c1 [PENTYL GALLATE]	14	≥ 10	47	> 50	14	> 50		inactive	inactive	inactive	inactive	inactive	inactive	inactive	inactive	inactive	inactive	inactive	inactive	inactive
O=C(NCCCOCCOCCOCCCNC(=O)c1ccc(O)c(O)c1O)c1ccc(O)c(O)c1O	> 50	> 50	81		28	49		inactive	inactive	inactive	inactive	inactive	inactive	inactive	inactive	inactive	inactive	inactive	inactive	inactive
O=C(OCCCCCCOC(=O)c1cc(O)c(O)c(O)c1)c1cc(O)c(O)c(O)c1	≥ 10	≥ 10	22		16	> 50		inactive	inactive	inactive	inactive	inactive	inactive	inactive	inactive	inactive	inactive	inactive	inactive	inactive
